# From ChEMBL document CHEMBL5608141, “Identification of compartment-specific drug sensitivities in CRC organoid-stroma co-cultures” (2024)
# Assays:
# Assay type in all cases: functional, Homo sapiens
# Parameters in all cases: dose or concentration left out as unconfirmed
# Colon cancer organoid [1] = assay: Identification of compartment-specific drug sensitivities in O14 CRC organoid-stroma F14 CAF co-cultures. Organoid is transduced with Lucferase2-P2A-EGFP lentivirus, fibroblast with Renilla-dsRed lentivirus. Dual-Glo Luciferase assay is used to report viability data.
# Colon cancer organoid [2] = assay: Identification of compartment-specific drug sensitivities in O20 CRC organoid-stroma F20 CAF co-cultures. Organoid is transduced with Lucferase2-P2A-EGFP lentivirus, fibroblast with Renilla-dsRed lentivirus. Dual-Glo Luciferase assay is used to report viability data.
# Colon cancer organoid [3] = assay: Identification of compartment-specific drug sensitivities in O06 CRC organoid-stroma F06 CAF co-cultures. Organoid is transduced with Lucferase2-P2A-EGFP lentivirus, fibroblast with Renilla-dsRed lentivirus. Dual-Glo Luciferase assay is used to report viability data.
# [4] = Transduced with Lucferase2-P2A-EGFP lentivirus
# [5] = Transduced with Renilla-dsRed lentivirus
Compound,Cell Viability (Colon cancer organoid [1]; [4]) [%],Cell Viability (Colon cancer organoid [1]; [5]) [%],Cell Viability (Colon cancer organoid [2]; [4]) [%],Cell Viability (Colon cancer organoid [2]; [5]) [%],Cell Viability (Colon cancer organoid [3]; [4]) [%],Cell Viability (Colon cancer organoid [3]; [5]) [%]
COCc1nc2cnc3cc(-c4c(C)noc4C)c(OC[C@H]4CCNC4)cc3c2n1[C@H](C)c1ccccc1 [GSK778],41.3417,133.991,27.6505,143.906,81.063,183.714
CN(C)C(=O)Cn1cc(-c2nc(C3(c4ccc(-c5cnc(N)nc5)cc4)CC3)no2)cn1 [BI 0153],127.983,104.715,119.435,91.9766,137.539,73.6279
O=C(NCc1ccccc1)c1ccc(S(=O)(=O)NCc2ccccc2)cc1,108.82,110.313,89.1581,96.8328,32.2843,131.443
CC(C)(C)c1cc(NC(=O)Nc2ccc(-c3cn4c(n3)sc3cc(OCCN5CCOCC5)ccc34)cc2)no1 [QUIZARTINIB],48.7226,98.8717,58.8072,111.29,26.1053,134.448
Cc1c(N2CCCC2)nc2ccc(Br)cc2c1C(=O)NC[C@H](CCC(=O)O)c1ccccc1Cl [BAY-6672],108.299,92.2123,83.1045,119.315,132.373,142.298
CC(=O)Nc1nc(CN2CCC[C@H](Cc3cc(C)nc(C)c3)C2)cs1 [JNJ-73924149],104.416,83.6177,90.3874,105.251,82.0789,131.954
O=C(O)c1ccc2c(c1)nc(Nc1cccc(Cl)c1)c1ccncc12 [SILMITASERTIB],116.96,107.599,158.324,81.7658,108.166,80.6873
Cc1sc2c(c1C)C(c1ccc(Cl)cc1)=N[C@@H](CC(=O)NCCCCCCCCNC(=O)COc1cccc3c1C(=O)N(C1CCC(=O)NC1=O)C3=O)c1nnc(C)n1-2 (stereo not given in full),5.905,10.8389,2.01,74.9854,5.4511,19.3995
Nc1ccc(C(=O)Nc2cccc(-c3nc(N4CCOCC4)c4oc5ncccc5c4n3)c2)cn1,65.9749,77.6378,141.773,75.1771,78.745,81.5262
Cn1cncc1[C@@](O)(COc1ccc(C#N)cc1-c1ccc(OC(F)(F)F)cc1)c1ccc(C#N)cc1 [A-108],94.7328,120.862,89.1467,110.638,61.6996,139.827
